“And” between values parts separate entries of the source, which are not always exact repeats. Identical values can stand only once.
Target: 5-hydroxytryptamine receptor 4 (Rattus norvegicus, UniProt Q62758)
Sequence (Q62758 whole entry): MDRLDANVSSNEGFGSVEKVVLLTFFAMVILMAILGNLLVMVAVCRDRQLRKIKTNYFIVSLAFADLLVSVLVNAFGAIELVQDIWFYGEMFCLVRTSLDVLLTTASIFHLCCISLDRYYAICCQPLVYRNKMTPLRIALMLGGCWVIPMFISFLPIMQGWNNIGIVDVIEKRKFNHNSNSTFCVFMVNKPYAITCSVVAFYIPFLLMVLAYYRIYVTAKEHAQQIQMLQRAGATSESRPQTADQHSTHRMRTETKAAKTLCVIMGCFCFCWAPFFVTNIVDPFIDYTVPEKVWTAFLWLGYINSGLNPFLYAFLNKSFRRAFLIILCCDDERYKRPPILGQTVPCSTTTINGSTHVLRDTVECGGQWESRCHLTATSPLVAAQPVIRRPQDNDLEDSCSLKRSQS

| Structure (SMILES) | Ki |
| --- | --- |
| CC(C)n1c(=O)n(C(=O)NC2CC3CCC(C2)N3C)c2ccccc21 (stereo not drawn) [BIMU 8] | 15.8 nM and 50.1 nM and 79.4 nM |
| COc1ccc2[nH]c(=O)n(C(=O)OC3CC4CCC(C3)N4C)c2c1 (stereo not drawn) [DAU 6285] | 79.4 nM and 63.1 nM and 158 nM |
| Cn1cc(C(=O)OCC2CCN(CCNS(C)(=O)=O)CC2)c2ccccc21 [GR 113808] | 3.16 nM and 1.99 nM and 3.98 nM |
| NCCc1c[nH]c2ccc(C(N)=O)cc12 [[3H]-5-carboxamidotryptamine] | 3160 nM and 5010 nM |

Now from value to compound:

| Ki | Structure (SMILES) |
| --- | --- |
| 100 nM and 251 nM and 501 nM | CN1C2CCC1CC(OC(=O)c1c[nH]c3ccccc13)C2 (stereo not drawn) |
| 1.25 nM and 0.39 nM and 0.31 nM | CCCCN1CCC(COC(=O)c2cc(Cl)c(N)c3c2OCCO3)CC1 [CAS_121881] |
| 2.51 nM and 1.25 nM | COc1cc(N)c(Cl)cc1C(=O)OCC1CCN(CCc2ccc3c(c2)OCCO3)CC1 [RS 57639] |
| 19.9 nM and 25.1 nM | CCN(CC)CCOC(=O)c1cc(Cl)c(N)cc1OC [SDZ-205557] |
